Measurements as given in patent publication US10654847B2, “Substituted 2-(4-heterocyclylbenzyl)isoindolin-1-one analogs as positive allosteric modulators of the muscarinic acetylcholine receptor M1” (Vanderbilt University, priority 2011, dated 2020).

Target: T1, mAChR M1 (UniProt P11229)
T1 sequence (P11229 1-460): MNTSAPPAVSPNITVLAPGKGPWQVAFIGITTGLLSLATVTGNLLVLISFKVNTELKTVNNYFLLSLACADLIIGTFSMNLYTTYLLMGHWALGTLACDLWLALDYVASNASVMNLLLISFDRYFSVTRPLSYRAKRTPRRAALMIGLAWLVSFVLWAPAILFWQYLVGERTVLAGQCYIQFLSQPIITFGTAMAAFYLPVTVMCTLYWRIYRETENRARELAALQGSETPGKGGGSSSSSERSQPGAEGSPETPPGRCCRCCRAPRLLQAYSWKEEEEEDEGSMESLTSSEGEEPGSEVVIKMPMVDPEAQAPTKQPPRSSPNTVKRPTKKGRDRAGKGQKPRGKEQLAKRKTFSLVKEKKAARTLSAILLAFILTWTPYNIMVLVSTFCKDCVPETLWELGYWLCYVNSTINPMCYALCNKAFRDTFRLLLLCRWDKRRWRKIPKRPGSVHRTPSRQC
Assay: mAChR M1 cell-based functional assay (calcium mobilization, potentiation of EC20 acetylcholine response)
Conditions: for Emax (%): % ACh maximum at 30 μM, mAChR M1-expressing CHO-K1 cells, calcium flux; for pEC50 / EC50: positive allosteric modulation of EC20 ACh response, mAChR M1 CHO-K1 cells; for pEC50: <5 estimated where no plateau; for EC50: >10 μM estimated where no plateau, read-out: EC50
Description: Chinese hamster ovary (CHO-K1) cells stably expressing rat (r)M1 were purchased from the American Type Culture Collection and cultured according to their indicated protocol. […] To make stable rM2, hM2, rM3, hM4, and rM4 cell lines for use in calcium mobilization assays, these cells also were stably transfected with a chimeric G-protein (Gqi5) (provided by B. R. Conklin, University of California, San Francisco) using Lipofectamine 2000. rM1, hM1, rM3, hM3, rM5, and hM5 cells were grown in Ham's F-12 medium containing 10% heat-inactivated fetal bovine serum (FBS), 20 mM HEPES, and 50 μg/mL G418 sulfate. rM2-Gqi5, hM2-Gqi5, and hM4-Gqi5 cells were grown in the same medium also containing 500 μg/mL Hygromycin B. Stable rM4-Gqi5 cells were grown in DMEM containing 10% heat-inactivated FBS, 20 mM HEPES, 400 μg/mL G418 sulfate, and 500 μg/mL Hygromycin B.
For high throughput measurement of agonist-evoked increases in intracellular calcium, CHO-K1 cells stably expressing muscarinic receptors were plated in growth medium lacking G418 and hygromycin at 15,000 cells/20 μL/well in Greiner 384-well black-walled, tissue culture (TC)-treated, clear-bottom plates (VWR). Cells were incubated overnight at 37° C. and 5% CO2. […] Compound master plates were formatted in an 11 point CRC format (1:3 dilutions) in 100% DMSO with a starting concentration of 10 mM using the BRAVO liquid handler (Agilent). Test compound CRCs were then transferred to daughter plates (240 nL) using the Echo acoustic plate reformatter (Labcyte, Sunnyvale, Calif.) and then diluted into assay buffer (40 μL) to a 2× stock using a Thermo Fisher Combi (Thermo Fisher Scientific, Waltham, Mass.).
Calcium flux was measured using the Functional Drug Screening System (FDSS) 6000 (Hamamatsu Corporation, Tokyo, Japan) as an increase in the fluorescent static ratio. Compounds were applied to cells (20 μL, 2×) using the automated system of the FDSS 6000 at 4 s into the 300 s protocol and the data were collected at 1 Hz. […] Agonist activity was analyzed as a concentration-dependent increase in calcium mobilization upon compound addition. Positive allosteric modulator activity was analyzed as a concentration-dependent increase in the EC20 acetylcholine response. Antagonist activity was analyzed as a concentration-dependent decrease in the EC80 acetylcholine response. Concentration-response curves were generated using a four-parameter logistical equation in XLfit curve fitting software (IDBS, Bridgewater, N.J.) for Excel (Microsoft, Redmond, Wash.) or Prism (GraphPad Software, Inc., San Diego, Calif.).
The above described assay was also operated in a second mode where an appropriate fixed concentration of the present compounds were added to the cells after establishment of a fluorescence baseline for about 3 seconds, and the response in cells was measured. […] Data were reduced as described above and the EC50 values for the agonist in the presence of test compound were determined by nonlinear curve fitting. A decrease in the EC50 value of the agonist with increasing concentrations of the present compounds (a leftward shift of the agonist concentration-response curve) is an indication of the degree of muscarinic positive allosteric modulation at a given concentration of the present compound. An increase in the EC50 value of the agonist with increasing concentrations of the present compounds (a rightward shift of the agonist concentration response curve) is an indication of the degree of muscarinic antagonism at a given concentration of the present compound. The second mode also indicates whether the present compounds also affect the maximum response of the muscarinic receptor to agonists.
The calcium mobilization assay was also used to determine “efficacy”.

Cn1cc2cc(-c3ccc(CN4Cc5ncccc5C4=O)c(F)c3)ccc2n1 [Example B1]
Emax (%): 82%
pEC50: 5.96
EC50: 1100 nM

Cc1nn(C)cc1-c1ccc(CN2Cc3ccccc3C2=O)c(F)c1 [Example B2]
Emax (%): 78%
pEC50: 5.82
EC50: 1500 nM

Cn1cc2cc(-c3ccc(CN4Cc5ccccc5S4(=O)=O)c(F)c3)ccc2n1 [Example B5]
Emax (%): 34%
pEC50: 5.60
EC50: 2500 nM

O=C1c2ccccc2CN1Cc1ccc(-c2ccc3cnccc3c2)cc1F [Example B6]
Emax (%): 38%
pEC50: 5.59
EC50: 2600 nM

Cn1cc(-c2ccc(CN3Cc4cc(F)cc(F)c4C3=O)c(F)c2)cn1 [Example B7]
Emax (%): 63%
pEC50: 5.59
EC50: 2600 nM

Cn1cc(-c2ccc(CN3Cc4ccncc4C3=O)c(F)c2)cn1 [Example B8]
Emax (%): 79%
pEC50: 5.55
EC50: 2800 nM

Cn1cc(-c2ccc(CN3Cc4ncccc4C3=O)c(F)c2)cn1 [Example B9]
Emax (%): 83%
pEC50: 5.55
EC50: 2800 nM

Cn1ccc2ccc(-c3ccc(CN4Cc5ccccc5C4=O)c(F)c3)cc21 [Example B10]
Emax (%): 62%
pEC50: 5.51
EC50: 3100 nM

O=C1c2ccccc2CN1Cc1ccc(-c2ccncc2)cc1F [Example B11]
Emax (%): 71%
pEC50: 5.47
EC50: 3400 nM

Cn1cc(-c2ccc(CN3Cc4ccccc4C3=O)c(C(F)(F)F)c2)cn1 [Example B12]
Emax (%): 36%
pEC50: 5.42
EC50: 3800 nM

CC(c1ccc(-c2cnn(C)c2)cc1F)N1Cc2ccccc2C1=O (stereo not drawn) [Example B13, 2-(1-(2-fluoro-4-(1-methyl-1H-pyrazol-4-yl)phenyl)ethyl)isoindolin-1-one]
Emax (%): 35%
pEC50: <5.00
EC50: > 10000 nM

O=C1c2cccnc2CN1Cc1ccc(-c2ccnc(F)c2)cc1F [Example B14]
Emax (%): 36%
pEC50: <5.00
EC50: > 10000 nM

Cn1cc(-c2ccc(CN3Cc4ccccc4C3=O)nc2)cn1 [Example B15]
Emax (%): 37%
pEC50: <5.00
EC50: > 10000 nM

O=C1c2ccccc2CN1Cc1ccc(-c2c[nH]nc2C(F)(F)F)cc1F [Example B16]
Emax (%): 38%
pEC50: <5.00
EC50: > 10000 nM

Cn1cc(-c2ccc(CN3Cc4ccccc4C3=O)cn2)cn1 [Example B17]
Emax (%): 40%
pEC50: <5.00
EC50: > 10000 nM

Cn1cc(-c2cnc(CN3Cc4ncccc4C3=O)c(F)c2)cn1 [Example B18]
Emax (%): 40%
pEC50: <5.00
EC50: > 10000 nM

Cn1nccc1-c1ccc(CN2Cc3ccccc3C2=O)c(F)c1 [Example B19]
Emax (%): 40%
pEC50: <5.00
EC50: > 10000 nM

Cn1cc(-c2cnc(CN3Cc4cccnc4C3=O)c(F)c2)cn1 [Example B20]
Emax (%): 43%
pEC50: <5.00
EC50: > 10000 nM

Cn1cc(-c2cnc(CN3Cc4ccccc4C3=O)c(F)c2)cn1 [Example B21]
Emax (%): 43%
pEC50: <5.00
EC50: > 10000 nM

O=C1c2ccccc2CN1Cc1ccc(-n2ccnc2)cc1F [Example B22]
Emax (%): 51%
pEC50: <5.00
EC50: > 10000 nM

Cn1cc(-c2ccc(CN3Cc4ccccc4S3(=O)=O)c(F)c2)cn1 [Example B23]
Emax (%): 63%
pEC50: <5.00
EC50: > 10000 nM

Cn1ncc2ccc(-c3ccc(CN4Cc5ccccc5C4=O)c(F)c3)cc21 [Example B24]
Emax (%): 64%
pEC50: <5.00
EC50: > 10000 nM

Cn1cc(-c2ccc(CN3Cc4cccnc4C3=O)c(F)c2)cn1 [Example B25]
Emax (%): 66%
pEC50: <5.00
EC50: > 10000 nM

Cn1ncc2cc(-c3ccc(CN4Cc5ncccc5C4=O)c(F)c3)ccc21 [Example B27]
Emax (%): 58%
pEC50: 6.1
EC50: 794 nM

O=C1c2cccnc2CN1Cc1ccc(-c2ccc3cc[nH]c3c2)cc1F [Example B28]
Emax (%): 34%
pEC50: <5.00
EC50: > 10000 nM

Cn1ncc2c(-c3ccc(CN4Cc5ncccc5C4=O)c(F)c3)cccc21 [Example B29]
Emax (%): 58%
pEC50: 5.80
EC50: 1590 nM

O=C1c2cccnc2CN1Cc1ccc(-c2ccc(Cl)nc2)cc1F [Example B30]
Emax (%): 40%
pEC50: 5.46
EC50: 3470 nM

O=C1c2cccnc2CN1Cc1ccc(-c2cncc(Cl)c2)cc1F [Example B31]
Emax (%): 35%
pEC50: 5.34
EC50: 4570 nM

Cn1cc2c(-c3ccc(CN4Cc5ncccc5C4=O)c(F)c3)cccc2n1 [Example B32]
Emax (%): 74%
pEC50: 6.07
EC50: 851 nM

COc1ncccc1-c1ccc(CN2Cc3ncccc3C2=O)c(F)c1 [Example B33]
Emax (%): 31%
pEC50: <5.00
EC50: > 10000 nM

Cc1cc(-c2ccc(CN3Cc4ncccc4C3=O)c(F)c2)cnc1F [Example B34]
Emax (%): 37%
pEC50: 5.60
EC50: 2510 nM

Cn1cc2ccc(-c3ccc(CN4Cc5ncccc5C4=O)c(F)c3)cc2n1 [Example B35]
Emax (%): 80%
pEC50: 5.71
EC50: 1950 nM

O=C1c2cccnc2CN1Cc1ccc(-c2ccc3[nH]ncc3c2)cc1F [Example B36]
Emax (%): 58%
pEC50: 6.28
EC50: 525 nM

O=C1c2cccnc2CN1Cc1ccc(-c2cnc3ccccc3c2)cc1F [Example B37]
Emax (%): 31%
pEC50: 6.41
EC50: 389 nM

O=C1c2cccnc2CN1Cc1ccc(-c2cccc3cccnc23)cc1F [Example B38]
Emax (%): 26%
pEC50: <5.00
EC50: > 10000 nM

CN(C)c1ccc(-c2ccc(CN3Cc4ncccc4C3=O)c(F)c2)cn1 [Example B39]
Emax (%): 31%
pEC50: 5.98
EC50: 1050 nM

O=C1c2cccnc2CN1Cc1ccc(-c2ccc3cn[nH]c3c2)cc1F [Example B40]
Emax (%): 70%
pEC50: 6.13
EC50: 741 nM

O=C1c2cccnc2CN1Cc1ccc(-c2ccncc2)cc1F [Example B41]
Emax (%): 70%
pEC50: 5.33
EC50: 4680 nM

O=C1c2cccnc2CN1Cc1ccc(-c2cccc3ncccc23)cc1F [Example B42]
Emax (%): 41%
pEC50: 5.44
EC50: 3630 nM

COc1cncc(-c2ccc(CN3Cc4ncccc4C3=O)c(F)c2)c1 [Example B43]
Emax (%): 47%
pEC50: <5.00
EC50: > 10000 nM

O=C1c2cccnc2CN1Cc1ccc(-c2ccc3cnccc3c2)cc1F [Example B44]
Emax (%): 65%
pEC50: 6.04
EC50: 912 nM
